Data from US7304083B2, “2-iminoimidazole derivatives (2)” (Eisai R&D Management Co., Ltd., priority 2001, dated 2007).
Structures can show the parent of a compound that is named as a salt.

How the values were obtained:
PAR1 thrombin receptor = target: T1, PAR1 thrombin receptor (Homo sapiens, UniProt P25116); assay: Receptor binding assay ([3H] high affinity TRAP, platelet membrane); details: 25 nM [3H] high affinity TRAP, 37° C. for 1 hour, read-out: RBA IC50
T1 construct: centrifuged at 40,000 g for 60 minutes to yield platelet membrane; from tissue; host or cells: platelet membrane prepared from platelet rich plasma of a healthy adult donor
T1 sequence (P25116 22-425): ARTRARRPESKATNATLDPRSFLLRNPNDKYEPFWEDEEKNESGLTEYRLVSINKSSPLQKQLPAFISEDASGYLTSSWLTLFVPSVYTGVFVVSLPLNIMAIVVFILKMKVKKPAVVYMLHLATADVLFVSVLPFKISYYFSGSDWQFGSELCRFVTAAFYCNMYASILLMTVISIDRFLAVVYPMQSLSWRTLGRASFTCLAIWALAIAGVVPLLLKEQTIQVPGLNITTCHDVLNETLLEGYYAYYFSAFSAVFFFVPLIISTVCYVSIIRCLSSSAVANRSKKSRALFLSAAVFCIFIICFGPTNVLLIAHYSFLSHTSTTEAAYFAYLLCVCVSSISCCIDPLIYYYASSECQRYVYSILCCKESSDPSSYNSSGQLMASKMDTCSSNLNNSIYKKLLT
Experimental: Blood was sampled from a healthy adult who had taken no drugs for one week, and 3.8% citric acid (a ratio of 1:9 with respect to the blood) was added as an anticoagulant. The mixture was then centrifuged at 100 g for 10 minutes at room temperature to yield platelet rich plasma (PRP). The platelet precipitate obtained by centrifuging the PRP was homogenized with a Dounce homogenizer, and then centrifuged at 40,000 g for 60 minutes to yield platelet membrane. The platelet membrane was suspended in a solution prepared by adding DMSO (dimethyl sulfoxide) at 1% concentration to Buffer 1: a 50 mM Tris-HCl buffer containing 10 mM MgCl2 and 1 mM EGTA (ethylene glycol tetraacetic acid), and the suspension was stored at −80° C. Bovine albumin and DMSO were added to Buffer 1 at 0.1% and 20%, respectively, to make a preparation solution for the test compound. […] Next, 30 μl of liquid scintillator was added for measurement of the radioactivity of the plate using a Top Counter (Packard), the value of the radioactivity in the presence of the test compound minus non-specific binding portion was divided by the specific binding value (the value of the binding in the absence of the compound minus the non-specific binding portion) to determine the binding ratio, from which the IC50 value was calculated. […]

[1] = tested on: platelet rich plasma (PRP); assay: Inhibitory effects on platelet aggregation using platelet rich plasma (thrombin-induced); format: cell-based; details: Homo sapiens, 0.1 h, aggregation initiated with thrombin 0.5–1.5 units/ml, area under aggregation curve over 6 minutes, read-out: Thr IC50
Experimental: [Inhibitory Effects on Platelet Aggregation Using Platelet Rich Plasma]
Blood was sampled from a healthy adult who had taken no drugs for one week, and 3.8% citric acid (a ratio of 1:9 with respect to the blood) was added as an anticoagulant. The mixture was then centrifuged at 100 g for 10 minutes at room temperature to yield platelet rich plasma (PRP). The PRP-removed blood was further centrifuged at 1000 g for 10 minutes to yield platelet poor plasma (PPP). The number of platelet was counted using a multi-parameter automatic hemocyte counter (K4500, Sysmex), and the PRP was diluted to approximately 300,000/μl with the PPP. The platelet aggregation activity was determined in the following manner using an Aggregometer (MC Medical). […] After addition of thrombin, the aggregation reaction was examined for 6 minutes and the areas under the aggregation curves were compared to determine the inhibition ratio, from which the IC50 value was calculated.

[2] = tested on: Vascular smooth muscle cells (rSMC); assay: Rat smooth muscle cell proliferation assay (thrombin-stimulated, MTT); format: cell-based; details: 48 h; male SD rat aorta rSMC, thrombin 0.1 unit/ml, 2 days, MTT OD 590 nm; read-out: Rat SMC IC50
Experimental: [Rat Smooth Muscle Cell Proliferation Assay]
Vascular smooth muscle cells (rSMC) were isolated from male SD rat aorta by the explant method. DMEM medium (Sigma) containing 10% fetal bovine serum (GibcoBRL), streptomycin and penicillin was used as the proliferation medium, and subculture was carried out at 37° C. in the presence of 5% CO2. Culture was initiated after adding 100 μl of rSMC suspension in proliferation medium at a concentration of 1×10^4 cells/ml, to a 96-well plate. After 3 days, cells were rinsed twice with 100 μl of DMEM medium, the medium was exchanged with 100 μl of DMEM medium containing 0.1% albumin (starvation medium), and serum starvation was initiated. […]
Upon adding 20 μl of MTT (3-[4,5-dimethylthiazol-2-yl]-2,5-diphenyltetrazolium bromide) dissolved in DPBS to 7.5 mg/ml, incubation was continued for 4 hours. […] As an index of cell proliferation, the OD 590 nm was measured using a plate reader (EL340, BIO-TEK Instruments Inc.), and the control OD value (OD value in the absence of the test compound) minus the OD value in the presence of the test compound was divided by the control OD value minus the blank OD value (OD value without thrombin stimulation) to determine the inhibition ratio, from which the IC50 value was calculated.

| Structure (SMILES) | IC50 (PAR1 thrombin receptor) [nM] | IC50 [1] [nM] | IC50 [2] [nM] |
| --- | --- | --- | --- |
| CCC(CC)CCn1ccn(CC(=O)c2cc(C(C)(C)C)c(O)c(C(C)(C)C)c2)c1=N [Example 1, 1-(3,5-Di-tert-butyl-4-hydroxy-phenyl)-2-[3-(3-ethyl-pentyl)-2-imino-2,3-dihydro-imidazol-1-yl]-ethanone hydrobromide] | 74 | 540 | 300 |
| CC(C)(C)c1cc(C(=O)Cn2ccn(Cc3ccccc3)c2=N)cc(C(C)(C)C)c1O [Example 2, 2-(3-Benzyl-2-imino-2,3-dihydro-imidazol-1-yl)-1-(3,5-di-tert-butyl-4-hydroxy-phenyl)-ethanone hydrobromide] | 250 | 2400 | 960 |
